{"source": "paper PMC9475553", "about": "“SHF Acts as a Novel Tumor Suppressor in Glioblastoma Multiforme by Disrupting STAT3 Dimerization” (Advanced Science, 2022)", "format_in_all_cases": "cell-based, human", "key": {"GBM cells [1]": {"test_system": "GBM cells", "test": "Annexin V flow cytometry apoptosis assay", "conditions": "25 uM stated adequate for subsequent experiments, n=3", "protocol": "Cell apoptosis was detected by flow cytometry according to the manufacturer's instructions of the Annexin V‐FITC Apoptosis Detection Kit (KeyGen Biotech, China). Briefly, cells were incubated with Doxorubicin (DOX, 2 µM) for 48 h. Cells were harvested and rinsed with ice‐cold PBS and then resuspended in 200 µL of binding buffer. 10 mL of AV‐FITC stock solution was added to cell suspensions and incubated for 15 min at RT. Cells were further rinsed with 200 µL ice‐cold PBS and immediately analyzed by a FACScan flow cytometry.\n(§1) Supplementary Fig. 9 C16 inhibits tumor growth and promotes chemosensitivity in vitro.\n(§2) B. Colony formation of cells treated with SC or C16 (left) and the accompanying statistical\n(§3) analysis (right; n=6, Student’s t-test, **P < 0.01).\n(§4) C. Annexin V staining flow cytometry assay of cells simultaneously treated with Dox with SC or\n(§5) C16 for 48 h (n=3, Student’s t-test, *P < 0.05, **P < 0.01).\n(§6) (1 picture or pasted object on this page, not shown here)"}, "U118 cells": {"test_system": "U118 cells", "test": "Cell growth assay (CCK-8), U118", "conditions": "n=6", "protocol": "(§7) Cell growth was quantified using the Cell Counting Kit‐8 Assay Kit (Bimake, Houston, TX). Each experiment was repeated at least six times. For the colony formation assay, 800 cells were seeded into each well of a six‐well plate with soft agar (Agarose; Sigma, St. Louis, MO) and maintained in a medium containing 10% FBS for 14 days. The colonies were fixed with methanol and stained with 0.1% crystal violet; the clones containing at least 50 cells were counted using an inverted microscope.\nas §1, §2, §3, §4, §5, §6"}, "STAT3 dimerization": {"test_system": "STAT3 dimerization", "test": "FRET assay: STAT3 dimerization in U251 cells", "conditions": "U251 cells transfected for 24 h, then C16 2 h; n=3, P < 0.01", "protocol": "Spectral fluorescence resonance energy transfer (FRET) assay was used to examine the dimerization of STAT3 and interaction between STAT3 and SHF. The procedure was performed as described previously.^[ [46] ^] Briefly, U251 cells were seeded at a density of 20 000 cells/compartment on coverslips coated with 1% poly‐L‐lysine (Sigma) in 24 well‐plates. For detecting SHF inhibiting STAT3 dimerization, ectopic SHF‐expressing stable U251 cells were transfected with STAT3‐DsRed and STAT3‐EGFP. For detecting SHF binding STAT3, U251 cells were transfected with SHF‐DsRed and STAT3‐EGFP. Cells were imaged on a Leica TCS SP8 confocal microscope (40× objective and 10× objective, 488 nm Argon laser line) after 24 h. Cells were excited with 488 nm laser (donor), and the emission of the acceptor DsRed was recorded at 565 nm. The FRET efficiency was calculated on a pixel‐by‐pixel basis with the following equation: FRET efficiency = FRETcorr / (FRETcorr + Donor). […] To increase the reliability of the calculations and prevent noise from distorting the calculated ratio, we excluded pixels below 50 intensity units and saturated pixels from the calculations and set their intensities to zero. […]\nSupplementary Fig. 8 Quantitative analysis of normalized FRET ratio in U251 cells (n=3, […]"}, "GBM cells [2]": {"test_system": "GBM cells", "test": "Colony formation assay", "conditions": "C16 vs SC; 25 uM stated adequate for subsequent experiments; n=6, P < 0.01", "protocol": "as §7, §1, §2, §3, §4, §5, §6"}}, "data": [{"substance": "C16: peptide spanning SHF amino acids 388–421, palmitic acid at the N-terminus, amidated C-terminus, 3× His tags added to the C-terminal (PFSSVPEIVHHYASRKLPIKGAEHMSLLYPVAIR; palmitic acid at the N-terminus; amidated C-terminus; left off: 3× His tags, C-terminal, kept)", "values": [{"measurement": "spontaneous apoptosis", "setting": "GBM cells [1]; C16 vs SC", "result": "without increasing spontaneous apoptosis"}, {"measurement": "chemosensitivity (apoptosis with Dox)", "setting": "GBM cells [1]; simultaneous Dox with SC or C16 for 48 h", "result": "promoted chemosensitivity"}, {"measurement": "cell growth inhibition", "setting": "U118 cells", "result": "inhibited cell growth with concentration dependence"}, {"measurement": "inhibition of STAT3 dimerization (FRET)", "setting": "STAT3 dimerization", "result": "effectively inhibits STAT3 dimerization"}, {"measurement": "colony growth", "setting": "GBM cells [2]", "result": "effectively impaired colony growth"}]}]}
